Patent US20230310459A1, “NEUROACTIVE STEROIDS AND THEIR METHODS OF USE” (Sage Therapeutics, Inc., priority 2017, published 2023)
Marks after values point to notes of the source that are not given here.

Legend:
Assay type in all cases: in vivo, human
[1] = system: Subjects with Major Depressive Disorder; assay: Phase 2 open-label study (Part A): HAM-D, MADRS, HAM-A efficacy
Experimental: (§1) In this multicenter, open-label, Phase 2 clinical trial, subjects were administered 30 mg Compound 1 on Days 1-14 and assessed through Day 28. Reductions in depressive and anxiety symptoms were assessed by the Hamilton Rating Scales for Depression and Anxiety (HAM-D and HAM-A), and the Montgomery-Asberg Depression Rating Scale (MADRS). Safety and tolerability were assessed via standard safety parameters. Pharmacokinetic parameters were also evaluated.
Written informed consent was provided at screening and was required for enrollment. The diagnosis of MDD was made using the Structured Clinical Interview for Diagnostic and Statistical Manual of Mental Disorders, Fifth Edition (DSM-5) Axis I Disorders (SCID-I), as performed by a qualified healthcare professional. Subjects were also screened with the 17-item Hamilton Rating Scale for Depression (HAM-D) to ensure symptom severity of at least 22. Hamilton Anxiety Rating Scale (HAM-A), Montgomery-Asberg Depression Rating Scale (MADRS), and Clinical Global Impression-Severity (CGI-S) scale were also administered. Using the 17-item HAM-D scale, a patient with a summed score of 17-23 was considered to have moderate depression; a summed score of ≥24 was considered severe depression. Patient histories and concomitant medication information were collected. The study population included subjects of both sexes, ages 18-65 years old, inclusive (inclusion/exclusion criteria below). Subjects remained as inpatients during the first 7 days of the study period and per Investigator's judgement thereafter. Subjects received the standard of care for adult inpatients diagnosed with MDD and were allowed to remain on a stable dose of psychotropic medications that were initiated at least 14 days prior to screening.
(§2) Compound 1 was provided as a 6 mg/mL stock aqueous solution, which was further diluted with sterile water to achieve the selected dose that was administered as an oral solution. Participants received an open label 30 mg Compound 1 oral dose administered at 8:00 PM (+/−15 minutes) with food on Days 1 through 14. Subjects who experienced drug-related moderate or severe adverse events (as judged by the study investigators) while receiving the 30 mg dose of study drug were to have their dose reduced to 20 mg for the remaining treatment period. Any subjects not tolerating a 20 mg dose were to be terminated from the study. Vital signs were collected daily. Other study procedures and plasma collection for PK parameters were conducted at various times during the 14-day open label treatment period (procedure details in the Supplemental Appendix). Treatment follow-up was conducted on an outpatient basis and included a follow-up visit at 1 week (21+/−1 day) and at 2 weeks (28+/−1 day) after the last dose of the study drug.
(§3) The primary endpoint of safety and tolerability of Compound 1 was assessed by the frequency and severity of adverse events, vital signs, changes in clinical laboratory measures, physical exams, electrocardiograms (ECGs), the Stanford Sleepiness Scale (SSS) score, and suicide ideation using the Columbia-Suicide Severity Rating Scale (C-SSRS, Supplemental Table 1). Secondary efficacy endpoints included: change from baseline in HAM-D total score, HAM-D response, defined as having a 50% or greater reduction from baseline in HAM-D total score, HAM-D remission, defined as having a HAM-D total score of ≤7, HAM-A change from baseline, and MADRS score change from baseline. The PK profile of Compound 1 was also determined from plasma samples.
Continuous parameters were summarized as n, mean, and standard deviation, with categorical variables summarized as frequency counts and percentages. For HAM-D, HAM-A, and MADRS total scores, p-values for change from baseline values were calculated based on mixed effects model for repeated measures with visit as fixed effect, adjusting for baseline total score. […]

[2] = system: Subjects with Major Depressive Disorder; assay: Phase 2 open-label study (Part A): safety and tolerability (TEAEs, C-SSRS); settings: N=13
Experimental: as §1, §2, §3
Subjects were monitored for safety during the Treatment and Follow-up Periods including monitoring for adverse events/serious adverse events, routine clinical laboratory assessments, physical examination, vital signs, and ECG. During the Treatment Period, subjects received study drug as long as there are no dose-limiting safety/tolerability concerns

[3] = system: Adult patients with moderate to severe Major Depressive Disorder (MDD); assay: Phase 2 double-blind placebo-controlled trial (Part B): HAM-D efficacy
Experimental: In the randomized, double-blind, parallel-group, placebo-controlled trial, eligible patients (with a minimum total score of 22 on the Hamilton Rating Scale for Depression) were stratified based on use of antidepressant treatment (current/stable or not treated/withdrawn ≥30 days) and randomized in a 1:1 ratio to receive Compound 1 Capsules (30 mg) or matching placebo. All doses of study drug were administered at night with food. The study consisted of a 14-day treatment period, and a 4-week follow-up period. The mean HAM-D total scores at baseline were 25.2 for the Compound 1 group and 25.7 for the placebo group (overall range 22-33), representing patients with moderate to severe MDD. Approximately 90 percent of patients in each group completed the study.

[4] = Phase 2 open-label study (Part A): plasma pharmacokinetics; settings: 30 mg oral solution once daily with food, N=13
Experimental: as §2, §3

[5] = Day 15, 30 mg once daily Days 1-14, N=13

## C[C@@]1(O)CC[C@H]2[C@H](CC[C@@H]3[C@@H]2CC[C@]2(C)[C@@H](C(=O)Cn4cc(C#N)cn4)CC[C@@H]32)C1 [Compound 1, 1-(2-((3R,5R,8R,9R,10S,13S,14S,17S)-3-hydroxy-3,13-dimethylhexadecahydro-1H-cyclopenta[a]phenanthren-17-yl)-2-oxoethyl)-1H-pyrazole-4-carbonitrile]
[1]; Day 15, end of the treatment period, N=13
  HAM-D remission rate (HAM-D total score ≤7): 62%
[1]; [5]
  HAM-A total score, mean decrease from baseline: 15.5 points
  HAM-D total score, mean decrease from baseline: 19.9 points
  MADRS total score, mean decrease from baseline: 26.4 points
[1]; Day 15, 30 mg once daily Days 1-14, baseline 23.2, N=13
  HAM-A mean total score: 7.7
[1]; Day 15, 30 mg once daily Days 1-14, baseline 36.9, N=13
  MADRS mean total score: 10.5
[1]; Day 15, 30 mg oral solution once daily Days 1-14 with food, baseline 27.2, N=13
  HAM-D mean total score: 7.3
[1]; Day 15, absence of antidepressants at enrollment (n=8)
  HAM-D response rate: 75.0%
[1]; Day 15, all 13 subjects
  HAM-D response rate (total score reduced by at least 50%): 85%
[1]; Day 15, presence of antidepressants at enrollment (n=5)
  HAM-D response rate: 100%
[1]; Day 28, absence of antidepressants at enrollment (n=8)
  HAM-D response rate: 75%
[1]; Day 28, presence of antidepressants at enrollment (n=5)
  HAM-D response rate: 80%
[1]; by Day 6, N=13
  HAM-D remission rate (HAM-D total score ≤7): 39%
[1]; p<0.05, 30 mg once daily
  time at which significant reductions in depressive symptoms (HAM-D) were seen: as early as Day 2
[2]; 30 mg once daily Days 1-14
  At least one TEAE, number of subjects: 12 subjects
  tolerability: generally well tolerated
[2]; Day 2-15 (yes on Days 10-13)
  C-SSRS Subject engaged in non-suicidal self-injurious behavior, number of subjects who answered yes: 1*
[2]; Day 2-15
  C-SSRS Aborted attempt, number of subjects who answered yes: 0
  C-SSRS Actual attempt, number of subjects who answered yes: 0
  C-SSRS Interrupted attempt, number of subjects who answered yes: 0
  C-SSRS Preparatory acts or behavior, number of subjects who answered yes: 0
  C-SSRS Suicidal behavior, number of subjects who answered yes: 0
[2]
  Dizziness, number of subjects: 3 subjects
  Dizziness, percent of subjects: (23.1%)
  Drug-related TEAE, number of subjects: 11 subjects
  Drug-related TEAE, percent of subjects: (84.6%)
  Headache, number of subjects: 4 subjects
  Headache, percent of subjects: (30.8%)
  Myalgia, number of subjects: 3 subjects
  Myalgia, percent of subjects: (23.1%)
  Nasal Congestion, number of subjects: 2 subjects
  Nasal Congestion, percent of subjects: (15.4%)
  Sedation, number of subjects: 6 subjects
  Sedation, percent of subjects: (46.2%)
  Serious AE, number of subjects: 0 subjects
  Severe TEAE, number of subjects: 0 subjects
  Somnolence, number of subjects: 3 subjects
  Somnolence, percent of subjects: (23.1%)
  TEAE leading to death, number of subjects: 0 subjects
  TEAE leading to drug discontinuation, number of subjects: 0 subjects
  changes in clinical hematology, urinalysis, vital signs, or ECGs: no clinically relevant changes
  serious adverse events (SAEs) or discontinuations due to AEs: no serious adverse events (SAEs) or discontinuations due to AEs
[3]; Capsules 30 mg at night with food
  onset of improvement in HAM-D total score compared to placebo: significant by the morning following the first dose (Day 2)
[3]; Day 15, Capsules 30 mg at night with food for 14 days, baseline 25.2, placebo 10.7
  HAM-D total score, mean reduction from baseline: 17.6 points
[3]; Day 15, p<0.0001
  HAM-D total score, least squared mean difference from placebo: −7.0
[3]; Day 15, placebo 23 percent, p=0.0005
  remission rate (HAM-D total score not more than 7): 64%
[3]; Week 4, placebo 11.9, p=0.0243
  HAM-D total score, mean reduction from baseline: 15.6
[3]; Week 4, placebo 28 percent, p=0.0221
  remission rate: 52%
[3]; Week 6, placebo 13.0, not statistically improved
  HAM-D total score, mean reduction from baseline: 15.0
[3]; Week 6, placebo 33 percent, not significant
  remission rate: 45%
[4]; Day 7, steady state
  Cavg ss, geometric mean: 41.4 ng/mL
[4]; human, plasma, Day 7, steady state, MDD subjects, read-out: Cmax, geometric mean
  Cmax: 101 ng/mL
[4]; human, plasma, Day 7, steady state, read-out: AUC0-t, geometric mean
  AUC(0-t): 992 ng·h/mL
[4]; human, plasma, Day 7, steady state, read-out: AUCinf, geometric mean
  AUC(0-inf): 1150 ng·h/mL
[4]; human, plasma, Day 7, read-out: T1/2, median (converted)
  half-life: 10.3 h
[4]; human, plasma, Day 7, read-out: Tmax, median
  Tmax: 1.1 h
